Values after ≈ are worked out from the molar mass of the structure shown.

Data set [1] in a line: Solubility of sumatriptan in receiver fluid. The format is physicochemical. Particulars: receiver fluid (10% ethanol in PBS), aqueous with cosolvent or surfactant or cyclodextrin; 10% ethanol in PBS (receiver fluid); read-out: maximum solubility.
Data set [2] can be described thus: Franz cell permeation and mass balance. It is filed as in vitro ADME, pig. The protocol:
[table] […] A permeation study was performed in order to investigate over what period of time a quantifiable amount of drug could be detected in the receiver fluid. Individually calibrated Franz cells with an average surface area and volume of approximately 0.6 cm^2 and 2 ml respectively were employed to determine the permeation of sumatriptan from the submicron particle formulation. The oral pig mucosa was mounted between two halves of the Franz cell with the mucosal side facing the donor compartment. The receptor compartment 22, having a clamp attachment lug 24, was filled with receiver fluid 27 (10% ethanol in PBS), stirred constantly with a PTFE-coated magnetic follower driven by submersible magnetic stirrer and maintained at 37° C. in a water bath. Approximately 5 mg of each formulation 26 was placed into the donor compartment 21 and the donor compartment was covered with Parafilm® throughout the study. Following the application of the drug formulation, the receiver fluid 27 (200 μl) was removed from the receiver compartment 22 via the sampling arm 25 after, e.g. 1, 2, 4, 6, 24 and 48 hours and analysed via HPLC. Each removed sample was replaced by an equal volume of fresh pre-warmed (37° C.) receiver fluid. At the end of the experiment, a mass balance investigation was performed as follows: A. Surface drug (S), the surface of the oral mucosa containing each formulation was wiped carefully using a sequence of dry and wet cotton buds. Collectively, the cotton buds from each Franz cell were immersed into glass vials containing 5 ml of receiver fluid. The vials were placed in an oscillating shaker and left overnight. An aliquot of 1 ml of the sample was then removed and analysed via HPLC. B. The oral mucosa was placed into a glass vial containing 5 ml of receiver fluid, and placed on a shaker at room temperature overnight. An aliquot of 1 ml of the sample was then removed and analysed via HPLC. C. Franz cell receptor compartment interface (joining section with donor) was swabbed with cotton buds. Collectively, the cotton buds from each Franz cell were immersed into a glass vial containing 5 ml receiver fluid. The vials were then placed in an oscillating shaker and left overnight. An aliquot of 1 ml of the sample was then removed and analysed via HPLC. D. Franz cell donor compartment interface (joining section with receptor) and internal face of the donor compartment was swabbed with cotton buds. Collectively, the cotton buds from each Franz cell were immersed into a glass vial containing 5 ml receiver fluid. The vials were then placed in an oscillating shaker and left overnight. An aliquot of 1 ml of the sample was then removed and analysed via HPLC. This experiment was carried out with the submicron sumatriptan formulation (a remade batch corresponding to Example 1A, batch 25#37/01) (n=6), pure unprocessed sumatriptan (n=3) and blank (n=2), i.e. cells with no formulation applied. […] Test Item 1 is the 40% sumatriptan submicron particle formulation (approximately 5 mg applied to the surface of the mucosa, n=6±SD), Test Item 2 is the unprocessed sumatriptan raw material (approximately 5 mg applied to the surface of the mucosa, n=3±SD) and the Blank is no Test Item applied (n=2).

Data set [3] can be described thus: Stability of sumatriptan in receiver fluid. The format is physicochemical. Particulars: 48 hours. The protocol:
[table] […] The stability of the raw drug (sumatriptan) in the receiver fluid was determined when stored at 4° C., 25° C., 37° C. and −20° C. over a period of 48 hours.

By solubility is commonly meant the concentration that dissolves in the medium under given conditions. As for `CNS(=O)(=O)Cc1ccc2[nH]cc(CCN(C)C)c2c1` [sumatriptan], the solubility in data set [1] came out at 1930 µg/mL (≈ 6.54 mM). In addition, the “% recovered compared to what was applied” value in data set [2] (Donor) turned out to be 1.49%; in data set [2] (Mucosa), 8.10%; in data set [2] (Plunger), 5.37%; in data set [2] (Receptor), 0.28%; in data set [2] (Surface) it was 49.33%; in data set [2] (Total amount in receiver fluid), 29.86%. In addition, the Sumatriptan recovered in data set [2] (Donor) came to 95.9 µg; in data set [2] (Mucosa) it was 522 µg; in data set [2] (Plunger), 346 µg; in data set [2] (Receptor), 18.2 µg; in data set [2] (Surface), 3180 µg; in data set [2] (Total amount in receiver fluid, approximately 5 mg applied), 1920 µg. The recovery in data set [2] (pig, 5 mg, mass balance, based on weight of formulation applied, read-out: total amount recovered compared to the theoretical recovery, Mean) turned out to be 94.4%. The “Peak area (stability in receiver fluid)” value in data set [3] (1 μg/ml, 4° C.) was 9366; in data set [3] (1 μg/ml, 25° C.), 9415; in data set [3] (1 μg/ml, 37° C.) it was 7094; in data set [3] (1 μg/ml, −20° C.) it was 9514; in data set [3] (50 μg/ml, 4° C.), 469462; in data set [3] (50 μg/ml, 25° C.) it was 470115. Further, the “Peak area (stability in receiver fluid)” value was 473418 in data set [3] (50 μg/ml, 37° C.) and 467385 in data set [3] (50 μg/ml, −20° C.).

Source of the values: US20100159007A1, “PHARMACEUTICAL COMPOSITIONS FOR TRANSMUCOSAL DELIVERY OF A THERAPEUTICALLY ACTIVE AGENT ON THE BASIS OF SUBMICRON PARTICLES” (PHARMAKODEX LIMITED, priority 2006, published 2010).
